Drawing on a melting point compilation (Tetko et al.; mined from patent text by program, amines drawn as free bases though some values may be those of a salt), this text covers melting point for 90 compounds.

Where only a bound is given, the exact number is not on record here.

By melting point is commonly meant the temperature of the solid-liquid transition. For `O=C1N=c2ccccc2=C1C1CCNCC1`, the melting point worked out at 156 °C.

The compound `O=c1[nH]c2nc3ccccc3n2c(=O)n1CCc1ccccc1` returned a melting point of 298 °C. Compound `CC1CC(c2c(S(C)(=O)=O)ccc(C(=O)O)c2Cl)=NO1` (stereo not given) came in with a melting point of 173 to 178 °C. Next, `CC(C)(C)c1cc(/C=C/C(=O)O)n(Cc2ccc(C(F)(F)F)cc2Cl)n1`: 175 to 176 °C. In the case of `CC(C)c1nn(-c2ccc(C(F)(F)F)cn2)cc1CCCCOc1cc(CCC(=O)O)n(C)n1`, the melting point is 113 to 114 °C. Compound `CC(C)(C)CNc1nc(C#N)nc2ccc(OCc3cccnc3)cc12` came in with a melting point of 156 to 158 °C. Next, `CC(C)(C)n1nnc(-c2ccc(CNc3n[nH]c4ncnc(Nc5cccc(Cl)c5)c34)cc2)n1`: 168 to 170 °C. Next, `Cn1c2ccc(Cl)cc2c2c(CO)nn(-c3ccccc3)c(=O)c21`: 278 to 280 °C; `O=S(=O)(Cl)c1cncc(Br)c1`: 64 °C. Next, `Oc1cc(-c2ncnc(C(F)F)c2Cl)c(F)cc1Cl`: 141 to 143 °C.

`OCc1ccccc1NCc1cc2c(cc1O)CCCO2` displayed a melting point of 141 to 142 °C. `Cc1cc(C(=O)N2Cc3ccc(C(=O)C(Cl)(Cl)Cl)n3Cc3ccccc32)ccc1I` registered a melting point of 163 °C. The result for `O=[N+]([O-])c1ccc(SNCCO)c(C(Cl)(Cl)Cl)c1` reads 85 °C. Next, `CNC(=O)Nc1ccc(OC)c(-c2ccc(C[C@H](NC(=O)c3c(Cl)cccc3Cl)C(=O)O)cc2)c1OC`: 236 to 237 °C; `CCOC(=O)c1c(=O)c2cc(F)c(F)cc2n2ccccc12`: 200 °C. Compound `CS(=O)c1cccc(-c2ncn(CCCN3CCOCC3)c2-c2ccncc2)c1` (stereo not given) showed a melting point of 117 to 118 °C. `CN(C)C1CCC(Nc2ncnc3sc4c(c23)CCC4)CC1` (stereo not given) registered a melting point of 97 to 98 °C.

As for `CCOCC(=NO)C(C)(C)NOC(CNC(C)(C)C(C)=NO)Cn1ccnc1[N+](=O)[O-]` (stereo not given), the melting point is 129 to 130 °C. Next, `COc1cc2c(cc1Br)c1ccccc1n2CCC(C)CCCC(C)C` (stereo not given): 55 °C; `CN(C)Cc1ccc(CSCCNC(=C[N+](=O)[O-])NCCCCCCCCCCCCNC(=C[N+](=O)[O-])NCCSCc2ccc(CN(C)C)o2)o1`: 74 to 76 °C. Next, `COc1cccc(-c2cc(F)cc3c2OC(CN)C3)c1OC` (stereo not given): 166 to 167 °C; `CCCN(CC(O)COc1ccc2c(=O)cc(-c3ccccc3)oc2c1)C(=O)OCc1ccccc1` (stereo not given): 92 to 94 °C. In turn, `Cn1ccn(CO)c1=O` gave a melting point of 102 to 104 °C. Consider `O=S(=O)(Nc1cccc2c(Cl)c[nH]c12)c1ccc(CCCn2ccnc2)cc1`, for which the melting point was in the range of 86 to 90 °C. The result for `Cc1cc(-c2ccccc2)n2nccc2n1` reads 70 to 71 °C; that for `CCOC(=O)c1cc2cc3[nH]c(=O)[nH]c3cc2[nH]1`, 196 to 197 °C. The compound `O=c1c2cc(CBr)ccc2oc2ncccc12` displayed a melting point of 211 to 212 °C. The result for `Cc1c(-c2ccc(O)cc2)n(Cc2ccc(C#CCN3CCCCC3)cc2)c2ccc(O)cc12` reads 118 to 123 °C. The compound `CCOCc1cc(OC)c(-c2ccc(C[C@H](NC(=O)c3c(F)cccc3F)C(=O)OCC)cc2)c(OC)c1` registered a melting point of 87 to 89 °C.

Turning to `COc1ccc(-c2ccnc(-c3cn(C)c(=O)n3-c3ccc(C(C)(C)C#N)cc3)c2)cn1`, the melting point was 187 °C. Consider `CN(C)Cc1ccc2oc(-c3ccc(O)cc3)cc(=O)c2c1`, for which the melting point was 99 to 102 °C. `COc1ccc(C(Cn2cc[nH]c2=O)=NO)cc1OC1CCCC1` displayed a melting point of 191 °C. `CCOC(=S)c1cnc(Cc2ccccc2)nc1N` returned a melting point of 117 to 118 °C. The result for `CC(C)C1C(O)=CC(=O)N1c1ccc(C#N)c(Cl)c1` (stereo not given) reads 217 to 219 °C; that for `CC(C)c1nc(COC(N)=O)n(Cc2cnc3ccccc3c2)c1Sc1cc(Cl)cc(Cl)c1`, 214 to 216 °C; that for `CC(C)(C)NC(=S)Nc1cc(F)cc(Cl)c1`, 135 to 137 °C. With `Cc1c(NC(=O)c2ccc(OCC3CC3)cc2)ccc2cc(CNCC3CCOCC3)[nH]c12`, the melting point was in the range of 167 to 168 °C. The result for `COc1nc(C)c(N2CCCn3c2nc2c(Cl)ccc(C(OC(F)F)C(F)(F)F)c23)c(C)n1` (stereo not given) reads 169 to 170 °C. With `CCCCCNc1nc(C)c(C(=O)c2ccc(N)c([N+](=O)[O-])c2)s1`, the melting point was 165 to 169 °C.

On to `O=C(O)c1c(O)c(-c2ccccc2)nc2ccccc12`, for which the melting point was 206 °C. The result for `COc1c(C)c2c(c(OC(C)=O)c1C/C=C/c1c(C)cccc1C(=O)O)C(=O)OC2` reads 180 to 183 °C. Take `CC(=O)c1ccc(NS(=O)(=O)c2sc3ccc(Cl)cc3c2C)c(S(C)(=O)=O)c1`: the melting point lay within 207 to 209 °C. In turn, `Cn1c(CNCC(C)(C)O)cc2cc(NC(=O)c3ccc(OCC4CC4)cc3)ccc21` returned a melting point of 188 to 189 °C. Next, `COc1cc(OCc2ccccc2)c(C23CC4CC(CC(C4)C2)C3)cc1Br`: 124 to 126 °C.

In the case of `COc1cc2ncc(C#N)c(Nc3ccc(F)c(Cl)c3)c2cc1NC(=O)C=CCN1C(C)CCC1C` (stereo not given), the melting point lay within 110 to 113 °C. Next, `Cc1nn(-c2cc(C(=O)O)c(Cl)cc2F)c(=O)n1C(F)F`: 132 to 135 °C. Next, `CCOC(=O)c1ccc(OCc2ccccc2)c(OCc2ccccc2)c1`: 68 to 69 °C; `N=C(Nc1ccc(CCNCc2ccccc2)cc1)c1cccs1`: 116 to 118 °C; `COc1ccc(N2CCOCC2)c2sc(NC(=O)N(C)C3CCOCC3)nc12`: 240 to 242 °C. The compound `COc1ccc(-c2cc3c(N4CCOCC4)nnc(N4CCOCC4)c3c(C)n2)cc1` gave a melting point of 206 to 209 °C. The result for `Clc1ccc2c(C3CCNCC3)c[nH]c2c1Cl` reads 254 to 257 °C. Compound `Nc1c(O)c(Br)cc(Br)c1C(=O)O` yielded a melting point of 162 to 164 °C. On to `NC(=O)N(O)[C@H]1CC[C@H](c2cccc(F)c2)C1` (relative stereo), for which the melting point lay within 113 to 114 °C. Next, `CCCOc1c(OC)cc([C@H]2CC[C@H](c3cc(OC)c(OC)c(OC)c3)O2)cc1S(=O)(=O)CCO` (relative stereo): 141 to 142 °C. Next, `O=C1CCOc2c1ccc1oc(Cl)cc21`: 144 to 146 °C; `CCOC(=O)c1c(C)cc2cnc(C)nc2c1C`: 84 to 86 °C.

Regarding `CC(C)(C)OC(=O)NCCCC(c1cc(F)ccc1F)S(=O)(=O)c1ccc(Cl)cc1` (stereo not given), the melting point fell in the range of 119 to 120 °C. Next, `CCCCNC(=O)NS(=O)(=O)c1cscc1C`: 126 to 131 °C. The compound `COc1cc2ncnc(N3CCC(C(C)(O)CN4CCCS4(=O)=O)CC3)c2cc1OC` (stereo not given) displayed a melting point of 173 to 174 °C. `CC(C)(C)OC(=O)[C@@H]1CCCN1C(=O)CCS` registered a melting point of 57 to 58 °C. Next, `CCOc1ccc(OC(CCC(=O)O)C2(O)CN3CCC2CC3)cc1` (stereo not given): 75 to 77 °C.

Regarding `COc1cccc(-c2cc(F)c3c(c2)CC(CN)O3)c1` (stereo not given), the melting point was over 250 °C.

In the case of `CCOC(=O)C1OC(n2cnc3c(N)ncnc32)C(O)C1N` (stereo not given), the melting point was in the range of 179 to 182 °C.

`O=c1[nH]c(=O)c2cc(N3CCCCC3)ccc2[nH]1` gave a melting point of over 280 °C. As to `N#Cc1ccc(N2CCC(CCO)C2)c2ccsc12` (stereo not given), the melting point is 109 to 111 °C. The result for `CN(C)CCc1ccc(N)c2[nH]ncc12` reads 125 °C; that for `O=C1C=C(NC(=O)C(=O)c2cn(Cc3cc(C(F)(F)F)cc(C(F)(F)F)c3)c3ccccc23)CO1`, 276 to 278 °C; that for `NC(=O)c1cc(F)cc(-c2ccc(F)c3cc(Cc4cccc(C(F)(F)F)c4)sc23)c1`, 161 to 162 °C.

`CC(C)CCS(=O)C1=C(O)CC(C)(C)CC1=O` (stereo not given) had a melting point of 64.5 to 66 °C. Next, `CSc1nnc(C(C)(C)C)c(=O)n1C`: 90 to 100 °C; `Cc1c[nH]c(-c2cnn(-c3c(Cl)cc(C(F)(F)F)cc3Cl)n2)n1`: 217 to 218 °C. The result for `CC(=O)OC1(N=NC2(OC(C)=O)CC(C)CC(C)(C)C2)CC(C)CC(C)(C)C1` (stereo not given) reads 111 to 115 °C; that for `O=[N+]([O-])c1cn2c(n1)O[C@@H](COc1ccc3nc(N4CCN(Cc5ccc(OC(F)(F)F)cc5)CC4)sc3c1)CC2`, 157 to 159 °C. `O=C1c2cc(Cl)c(Cl)cc2C(=O)N1CCCl` returned a melting point of 144 to 145 °C. `CC(C)(C(=O)O)c1ccc2cc(OCc3ccc4ccccc4n3)ccc2c1` gave a melting point of 207 to 209 °C. The result for `CCNC(=O)C1=C(OC(C)C)c2cc(OC)ccc2S1=O` (stereo not given) reads 88 to 90 °C; that for `CCn1c(=O)c2c(nc(/C=C/c3cccc(O)c3O)n2C)n(CC)c1=O`, 242 to 244 °C; that for `O=C(O)c1ccc(C(=O)/C=C/c2ccc(F)c(-c3cccs3)c2)cc1`, 242 to 244 °C.

Consider `CN1C(=O)CCC2(C)c3ccc(CC(=O)O)cc3CCC12` (stereo not given), for which the melting point was in the range of 200 to 202 °C.

In the case of `C=CCN(CCC)C1COc2cccc(O)c2C1` (stereo not given), the melting point fell in the range of 78 to 80 °C.

In turn, `O=C(O)C1=Cc2cc(Cl)c(Oc3ccc(C(F)(F)F)cc3)cc2OC1C(F)(F)F` (stereo not given) showed a melting point of 231 to 232 °C.

`NNc1ccnc(-c2cccc(I)c2)n1` came in with a melting point of 179 to 181 °C. The result for `CC(=O)OC1CSC(Oc2ccc(-c3ccsc3)nc2)C(OC(C)=O)C1OC(C)=O` (stereo not given) reads 158 °C; that for `Cc1nc(-c2ccc(Br)cc2)n(-c2ccc(S(C)(=O)=O)cn2)n1`, 211 to 212 °C. Next, `CCc1cc(C)cc(CC)c1C(C(=O)NC)C(=O)NC`: 98 to 100 °C. Compound `Cc1nc2c(s1)N(C(=O)c1cnoc1C)CCCC2` displayed a melting point of 117 to 118 °C. With `O=C1CC2(CN1)CC(=O)c1cc(Cl)ccc12` (stereo not given), the melting point fell in the range of 220 to 222 °C. Compound `CCCCOc1cc(/C=C/C(=O)NS(=O)(=O)CCC(C)C)n(Cc2ccc(Cl)cc2Cl)n1` yielded a melting point of 119 to 120 °C.

Regarding `CNCC(O)c1ccc(Br)cc1` (stereo not given), the melting point fell in the range of 91.5 to 93.7 °C. Next, `Cc1ccc(S(=O)(=O)N(C)c2ccc(Cl)cc2C#N)cc1`: 145 to 147 °C.
